Test results reported in ChEMBL document CHEMBL3046208, “Natural and synthetic podolactones with potential use as natural herbicide models” (2000).
Calls of active or inactive are those of the source.

Legend:
Assay type in all cases: functional
[1] = system: Lactuca sativa; assay: Stimulation of root length of Lactuca sativa cv. Roman (lettuce) at 0.1 mM after 5 days relative to untreated control
[2] = system: Lepidium sativum; assay: Inhibition of shoot length of Lepidium sativum at 0.1 mM after 5 days relative to untreated control; settings: 120 h
[3] = system: Solanum lycopersicum; assay: Inhibition of root length of Solanum lycopersicum (tomato) at 0.1 mM after 5 days relative to untreated control; settings: 120 h
[4] = system: Triticum aestivum; assay: Inhibition of shoot length of Triticum aestivum (wheat) at 0.1 mM after 5 days relative to untreated control
[5] = system: Lactuca sativa; assay: Stimulation of germination of Lactuca sativa cv. Roman (lettuce) at 0.1 mM after 5 days relative to untreated control
[6] = system: Lepidium sativum; assay: Stimulation of shoot length of Lepidium sativum at 0.1 mM after 5 days relative to untreated control
[7] = system: Lactuca sativa; assay: Inhibition of root length of Lactuca sativa cv. Roman (lettuce) at 0.1 mM after 5 days relative to untreated control; settings: 120 h
[8] = system: Lactuca sativa; assay: Inhibition of shoot length of Lactuca sativa cv. Roman (lettuce) at 0.1 mM after 5 days relative to untreated control; settings: 120 h
[9] = system: Lactuca sativa; assay: Stimulation of shoot length of Lactuca sativa cv. Nigra (lettuce) at 0.1 mM after 5 days relative to untreated control
[10] = system: Lepidium sativum; assay: Inhibition of germination of Lepidium sativum at 0.1 mM after 5 days relative to untreated control
[11] = system: Hordeum vulgare; assay: Inhibition of root length of Hordeum vulgare (barley) at 0.1 mM after 5 days relative to untreated control; settings: 120 h
[12] = system: Solanum lycopersicum; assay: Stimulation of germination of Solanum lycopersicum (tomato) at 0.1 mM after 5 days relative to untreated control
[13] = system: Lactuca sativa; assay: Inhibition of root length of Lactuca sativa cv. Nigra (lettuce) at 0.1 mM after 5 days relative to untreated control; settings: for inhibition at 100 µM: 120 h
[14] = system: Hordeum vulgare; assay: Inhibition of germination of Hordeum vulgare (barley) at 0.1 mM after 5 days relative to untreated control; settings: 120 h
[15] = system: Lactuca sativa; assay: Inhibition of germination of Lactuca sativa cv. Roman (lettuce) at 0.1 mM after 5 days relative to untreated control; settings: 120 h
[16] = system: Hordeum vulgare; assay: Stimulation of shoot length of Hordeum vulgare (barley) at 0.1 mM after 5 days relative to untreated control
[17] = system: Allium cepa; assay: Inhibition of germination of Allium cepa (onion) at 0.1 mM after 5 days relative to untreated control; settings: 120 h
[18] = system: Solanum lycopersicum; assay: Stimulation of root length of Solanum lycopersicum (tomato) at 0.1 mM after 5 days relative to untreated control
[19] = system: Lepidium sativum; assay: Stimulation of root length of Lepidium sativum at 0.1 mM after 5 days relative to untreated control
[20] = system: Allium cepa; assay: Inhibition of shoot length of Allium cepa (onion) at 0.1 mM after 5 days relative to untreated control; settings: 120 h
[21] = system: Allium cepa; assay: Stimulation of root length of Allium cepa (onion) at 0.1 mM after 5 days relative to untreated control
[22] = system: Lactuca sativa; assay: Stimulation of shoot length of Lactuca sativa cv. Roman (lettuce) at 0.1 mM after 5 days relative to untreated control
[23] = system: Hordeum vulgare; assay: Inhibition of shoot length of Hordeum vulgare (barley) at 0.1 mM after 5 days relative to untreated control
[24] = system: Lepidium sativum; assay: Inhibition of root length of Lepidium sativum at 0.1 mM after 5 days relative to untreated control; settings: for inhibition at 100 µM: 120 h
[25] = system: Triticum aestivum; assay: Stimulation of germination of Triticum aestivum (wheat) at 0.1 mM after 5 days relative to untreated control
[26] = system: Hordeum vulgare; assay: Stimulation of root length of Hordeum vulgare (barley) at 0.1 mM after 5 days relative to untreated control
[27] = system: Allium cepa; assay: Stimulation of shoot length of Allium cepa (onion) at 0.1 mM after 5 days relative to untreated control
[28] = system: Triticum aestivum; assay: Inhibition of germination of Triticum aestivum (wheat) at 0.1 mM after 5 days relative to untreated control; settings: for inhibition at 100 µM: 120 h
[29] = system: Lactuca sativa; assay: Stimulation of germination of Lactuca sativa cv. Nigra (lettuce) at 0.1 mM after 5 days relative to untreated control
[30] = system: Allium cepa; assay: Inhibition of root length of Allium cepa (onion) at 0.1 mM after 5 days relative to untreated control; settings: for inhibition at 100 µM: 120 h
[31] = system: Lepidium sativum; assay: Stimulation of germination of Lepidium sativum at 0.1 mM after 5 days relative to untreated control
[32] = system: Lactuca sativa; assay: Inhibition of shoot length of Lactuca sativa cv. Nigra (lettuce) at 0.1 mM after 5 days relative to untreated control; settings: 120 h
[33] = system: Solanum lycopersicum; assay: Inhibition of shoot length of Solanum lycopersicum (tomato) at 0.1 mM after 5 days relative to untreated control; settings: 120 h
[34] = system: Triticum aestivum; assay: Stimulation of shoot length of Triticum aestivum (wheat) at 0.1 mM after 5 days relative to untreated control
[35] = system: Triticum aestivum; assay: Stimulation of root length of Triticum aestivum (wheat) at 0.1 mM after 5 days relative to untreated control
[36] = system: Hordeum vulgare; assay: Stimulation of germination of Hordeum vulgare (barley) at 0.1 mM after 5 days relative to untreated control
[37] = system: Allium cepa; assay: Stimulation of germination of Allium cepa (onion) at 0.1 mM after 5 days relative to untreated control
[38] = system: Lactuca sativa; assay: Stimulation of root length of Lactuca sativa cv. Nigra (lettuce) at 0.1 mM after 5 days relative to untreated control
[39] = system: Solanum lycopersicum; assay: Stimulation of shoot length of Solanum lycopersicum (tomato) at 0.1 mM after 5 days relative to untreated control
[40] = system: Lactuca sativa; assay: Inhibition of germination of Lactuca sativa cv. Nigra (lettuce) at 0.1 mM after 5 days relative to untreated control; settings: 120 h
[41] = system: Triticum aestivum; assay: Inhibition of root length of Triticum aestivum (wheat) at 0.1 mM after 5 days relative to untreated control; settings: for inhibition at 100 µM: 120 h
[42] = system: Solanum lycopersicum; assay: Inhibition of germination of Solanum lycopersicum (tomato) at 0.1 mM after 5 days relative to untreated control; settings: 120 h

COc1nc(C)nc(NC(=O)NS(=O)(=O)c2ccccc2OCCCl)n1 [LOGRAN]
< 20%: inhibition at 100 µM [2]
> 40%: inhibition at 100 µM [3] | inhibition at 100 µM [7] | inhibition at 100 µM [8] | inhibition at 100 µM [11] | inhibition at 100 µM [13] | inhibition at 100 µM [14] | inhibition at 100 µM [15] | inhibition at 100 µM [20] | inhibition at 100 µM [24] | inhibition at 100 µM [28] | inhibition at 100 µM [30] | inhibition at 100 µM [32] | inhibition at 100 µM [33] | inhibition at 100 µM [40]
inactive: inhibition [10] | Activity [31]
<20%: Activity [6]
20%: inhibition at 100 µM ([4]; 120 h) | Activity [12] | Activity [16] | inhibition at 100 µM [17] | inhibition at 100 µM ([23]; 120 h) | Activity [34] | Activity [35] | Activity [37] | inhibition at 100 µM [41] | inhibition at 100 µM [42]
>40%: Activity [1] | Activity [5] | Activity [9] | Activity [18] | Activity [19] | Activity [21] | Activity [22] | Activity [25] | Activity [26] | Activity [27] | Activity [29] | Activity [36] | Activity [38] | Activity [39]

COC(=O)[C@@]1(C)CCC[C@]2(C)C3=CC(=O)O[C@H](C(C)C)C3=CC[C@@H]12
<20%: Activity [1] | Activity [5] | Activity [6] | Activity [9] | Activity [12] | Activity [22] | Activity [26] | Activity [29] | Activity [35] | Activity [39]
>40%: Activity [18]
< 20%: inhibition at 100 µM [2] | inhibition at 100 µM [7] | inhibition at 100 µM [8] | inhibition at 100 µM [11] | inhibition at 100 µM [15] | inhibition at 100 µM [32] | inhibition at 100 µM [33] | inhibition at 100 µM [40] | inhibition at 100 µM [41] | inhibition at 100 µM [42]
inactive: inhibition [4] | inhibition [10] | inhibition [13] | Activity [16] | inhibition [23] | Activity [25] | inhibition [28] | Activity [31] | Activity [34] | Activity [38]
20%: inhibition at 100 µM [14] | inhibition at 100 µM [17] | Activity [19] | inhibition at 100 µM [20] | Activity [21] | inhibition at 100 µM [24] | Activity [27] | inhibition at 100 µM [30] | Activity [36] | Activity [37]
> 40%: inhibition at 100 µM [3]

COC(=O)[C@@]1(C)CCC[C@@]2(C)[C@H]1CC=C1COC(=O)C[C@@H]12
<20%: Activity [1] | Activity [5] | Activity [6] | Activity [9] | Activity [12] | Activity [22] | Activity [25] | Activity [27] | Activity [29] | Activity [38]
20%: inhibition at 100 µM [11] | inhibition at 100 µM [17] | Activity [26] | inhibition at 100 µM [33] | Activity [37] | Activity [39]
>40%: Activity [18] | Activity [36]
> 40%: inhibition at 100 µM [3] | inhibition at 100 µM [14]
< 20%: inhibition at 100 µM [2] | inhibition at 100 µM [7] | inhibition at 100 µM [8] | inhibition at 100 µM [13] | inhibition at 100 µM [15] | inhibition at 100 µM [20] | inhibition at 100 µM [28] | inhibition at 100 µM [32] | inhibition at 100 µM [40] | inhibition at 100 µM [42]
inactive: inhibition [4] | inhibition [10] | Activity [16] | Activity [19] | Activity [21] | inhibition [23] | inhibition [24] | inhibition [30] | Activity [31] | Activity [34] | Activity [35] | inhibition [41]
